Structures are written as SMILES. Converted amounts (≈) assume the structure as drawn.

Data set [1] concerns MCF7. Put plainly: Antiproliferative activity against human MCF7 cells after 3 days by MTT assay. Type of data set: functional, cell-based. The following applies: MCF7, 72 h. A general note: Tetrazolium dyes change colour on reduction, which living cells bring about.
The test system of data set [2] is HeLa. Put plainly: Antiproliferative activity against human HeLa cells after 3 days by MTT assay. Type of data set: functional, cell-based. The following applies: 72 h.
Data set [3] can be described thus: Thermodynamic solubility of the compound in phosphate buffer at pH 7.4 at 1 mg after 10 mins by HPLC -UV analysis. Type of data set: physicochemical. The conditions noted are these: read-out: Therm_solubility.
Data set [4] concerns Bel-7402. Put plainly: Antiproliferative activity against human Bel7402 cells after 3 days by MTT assay. Type of data set: functional, cell-based. The conditions noted are these: Bel-7402, 72 h.

`C[C@@H](NC(=O)c1ccccc1)C(=O)OC[C@H](Cc1ccccc1)NC(=O)c1ccccc1`: the IC50 in data set [1], in data set [2] and in data set [4] was more than 100 µM throughout. In addition, in data set [3], the solubility thermodynamic at 10 min was 192 µg/mL (≈ 445 µM).
With `O=C(N[C@H](COC(=O)[C@H](Cc1ccccc1)NC(=O)c1ccccc1)Cc1ccccc1)c1ccccc1` [ASPERPHENAMATE], the IC50 (commonly the concentration needed to halve the response being measured) in data set [1] was 94.8 µM; in data set [2], more than 100 µM; in data set [4], more than 100 µM. Besides, the solubility thermodynamic at 10 min in data set [3] is 8.85 µg/mL (≈ 17.5 µM).
Regarding `O=C(N[C@H](COC(=O)[C@@H](Cc1ccccc1)NC(=O)c1ccccc1)Cc1ccccc1)c1ccccc1`, the IC50 in data set [1], in data set [2] and in data set [4] was more than 100 µM in each case. For the same compound, in data set [3], the solubility thermodynamic at 10 min was determined as 3.21 µg/mL (≈ 6.34 µM).
Regarding `O=C(N[C@H](COC(=O)[C@@H](Cc1ccccc1)NC(=O)c1ccccc1O)Cc1ccccc1)c1ccccc1`, the IC50 is 11.9 µM in data set [1], 15.2 µM in data set [2] and 14.5 µM in data set [4]. In addition, in data set [3], the solubility thermodynamic at 10 min came to 77.4 µg/mL (≈ 148 µM).
Taken in the same sequence, the figures for `CC(=O)N[C@H](COC(=O)[C@H](Cc1ccccc1)NC(=O)c1ccccc1)Cc1ccccc1` were 48.6 µM, 71.5 µM, 79.1 µM and 485 µg/mL (≈ 1090 µM).
`O=C(Cc1ccccc1OCc1ccccc1)N[C@H](Cc1ccccc1)C(=O)OC[C@H](Cc1ccccc1)NC(=O)c1ccccc1`: the concentration for half-maximal inhibition (IC50) in data set [1] worked out at 28.8 µM; in data set [2], 25.5 µM; in data set [4], 37.8 µM. For the same compound, the solubility thermodynamic at 10 min in data set [3] came to 135 µg/mL (≈ 216 µM).
Taken in the same sequence, the figures for `C[C@@H](COC(=O)[C@H](Cc1ccccc1)NC(=O)c1ccccc1)NC(=O)c1ccccc1` were more than 100 µM, more than 100 µM, more than 100 µM and 513 µg/mL (≈ 1190 µM).
Taken in the same sequence, the figures for `CC(=O)N[C@@H](Cc1ccccc1)C(=O)OC[C@H](Cc1ccccc1)NC(=O)c1ccccc1` were 88.4 µM, more than 100 µM, more than 100 µM and 560 µg/mL (≈ 1260 µM).
Taken in the same sequence, the figures for `O=C(Cc1ccccc1O)N[C@H](Cc1ccccc1)C(=O)OC[C@H](Cc1ccccc1)NC(=O)c1ccccc1` were 62.9 µM, 53.3 µM, 54 µM and 524 µg/mL (≈ 977 µM).
With `C[C@@H](COC(=O)[C@@H](Cc1ccccc1)NC(=O)c1ccccc1)NC(=O)c1ccccc1`, the IC50 in data set [1], in data set [2] and in data set [4] was more than 100 µM each time. The solubility thermodynamic at 10 min in data set [3] came to 236 µg/mL (≈ 549 µM).
With `O=C(Cc1ccccc1O)N[C@@H](Cc1ccccc1)C(=O)OC[C@H](Cc1ccccc1)NC(=O)c1ccccc1`, the half-maximal inhibitory concentration (IC50) in data set [1], in data set [2] and in data set [4] was more than 100 µM throughout. Besides, the solubility thermodynamic at 10 min in data set [3] is 349 µg/mL (≈ 650 µM).
`O=C(N[C@H](COC(=O)[C@H](Cc1ccccc1)NC(=O)c1cccc(O)c1)Cc1ccccc1)c1ccccc1`: the concentration for half-maximal inhibition (IC50) in data set [1], in data set [2] and in data set [4] was more than 100 µM throughout. Further, the solubility thermodynamic at 10 min in data set [3] stood at 1590 µg/mL (≈ 3040 µM).
For `O=C(N[C@H](COC(=O)[C@H](Cc1ccccc1)NC(=O)c1ccccc1OCc1ccccc1)Cc1ccccc1)c1ccccc1`, the IC50 in data set [1], in data set [2] and in data set [4] was more than 100 µM throughout. Further, in data set [3], the solubility thermodynamic at 10 min was found to be 26.3 µg/mL (≈ 43 µM).
On to `O=C(Cc1ccc(O)cc1)N[C@H](Cc1ccccc1)C(=O)OC[C@H](Cc1ccccc1)NC(=O)c1ccccc1`, for which the IC50 in data set [1], in data set [2] and in data set [4] was more than 100 µM throughout. In addition, the solubility thermodynamic at 10 min in data set [3] stood at 295 µg/mL (≈ 550 µM).
For the compound `O=C(N[C@H](COC(=O)[C@H](Cc1ccccc1)NC(=O)c1ccc(O)cc1)Cc1ccccc1)c1ccccc1`, the IC50 in data set [1], in data set [2] and in data set [4] was more than 100 µM throughout. Also, the solubility thermodynamic at 10 min in data set [3] came to 370 µg/mL (≈ 709 µM).
For `O=C(N[C@H](COC(=O)[C@@H](Cc1ccccc1)NC(=O)c1cccc(O)c1)Cc1ccccc1)c1ccccc1`, the values for the IC50 in data set [1], in data set [2] and in data set [4] were 42.9 µM, 26.1 µM and 40.2 µM, respectively. Moreover, the solubility thermodynamic at 10 min in data set [3] amounted to 2000 µg/mL (≈ 3820 µM).
For `O=C(N[C@H](COC(=O)[C@@H](Cc1ccccc1)NC(=O)c1ccc(O)cc1)Cc1ccccc1)c1ccccc1`, the IC50 in data set [1] was 53.2 µM; in data set [2] it was 59 µM; in data set [4], 68.7 µM. The solubility thermodynamic at 10 min in data set [3] was found to be 302 µg/mL (≈ 578 µM).
Taken in the same sequence, the figures for `C[C@H](NC(=O)c1ccccc1)C(=O)OC[C@H](Cc1ccccc1)NC(=O)c1ccccc1` were more than 100 µM, more than 100 µM, more than 100 µM and 329 µg/mL (≈ 764 µM).
Take `O=C(N[C@@H](COC(=O)[C@@H](Cc1ccccc1)NC(=O)c1ccccc1)Cc1ccccc1)c1ccccc1`: the IC50 in data set [1], in data set [2] and in data set [4] was more than 100 µM throughout.
`CC(=O)N[C@H](COC(=O)[C@@H](Cc1ccccc1)NC(=O)c1ccccc1)Cc1ccccc1`: the IC50 in data set [1] was 79.5 µM; in data set [2], more than 100 µM; in data set [4], 89 µM. In data set [3], the solubility thermodynamic at 10 min is 79.7 µg/mL (≈ 179 µM).
Taken in the same sequence, the figures for `CC(=O)N[C@H](Cc1ccccc1)C(=O)OC[C@H](Cc1ccccc1)NC(=O)c1ccccc1` were 79.9 µM, 56.4 µM, 69.8 µM and 207 µg/mL (≈ 466 µM).
Turning to `O=C(Cc1ccccc1OCc1ccccc1)N[C@@H](Cc1ccccc1)C(=O)OC[C@H](Cc1ccccc1)NC(=O)c1ccccc1`, the half-maximal inhibitory concentration (IC50) in data set [1], in data set [2] and in data set [4] was more than 100 µM throughout. Also, the solubility thermodynamic at 10 min in data set [3] amounted to 223 µg/mL (≈ 356 µM).
Turning to `O=C(Cc1ccc(O)cc1)N[C@@H](Cc1ccccc1)C(=O)OC[C@H](Cc1ccccc1)NC(=O)c1ccccc1`, the IC50 in data set [1] came to 79.6 µM; in data set [2] it was 62.7 µM; in data set [4], 94.4 µM. Further, the solubility thermodynamic at 10 min in data set [3] came to 109 µg/mL (≈ 204 µM).
Turning to `O=C(N[C@H](COC(=O)[C@H](Cc1ccccc1)NC(=O)c1ccccc1O)Cc1ccccc1)c1ccccc1`, the results for the IC50 in data set [1], in data set [2] and in data set [4] were 49 µM, 30.4 µM and 64.8 µM, respectively. Moreover, the solubility thermodynamic at 10 min in data set [3] worked out at 18.2 µg/mL (≈ 34.7 µM).
Regarding `O=C(Cc1ccccc1OCc1ccccc1)N[C@@H](Cc1ccccc1)C(=O)OC[C@@H](Cc1ccccc1)NC(=O)c1ccccc1`, the IC50 in data set [1] amounted to 28.2 µM; in data set [2], 58.8 µM; in data set [4] it was 70.6 µM.
Turning to `O=C(N[C@@H](COC(=O)[C@@H](Cc1ccccc1)NC(=O)c1ccccc1OCc1ccccc1)Cc1ccccc1)c1ccccc1`, the IC50 in data set [1] came out at 70.3 µM; in data set [2], 54.4 µM; in data set [4], 41.1 µM.
For `O=C(N[C@@H](COC(=O)[C@@H](Cc1ccccc1)NC(=O)c1cccc(O)c1)Cc1ccccc1)c1ccccc1`, in that order: 55.3 µM, 63.4 µM and 49.9 µM.
For `O=C(N[C@H](COC(=O)[C@@H](Cc1ccccc1)NC(=O)c1ccccc1OCc1ccccc1)Cc1ccccc1)c1ccccc1`, the IC50 is 42.2 µM in data set [1], 24.6 µM in data set [2] and 31.8 µM in data set [4]. Moreover, in data set [3], the solubility thermodynamic at 10 min stood at 42.6 µg/mL (≈ 69.5 µM).

These data come from ChEMBL document CHEMBL1955745, “Synthesis and in vitro antitumor activity of asperphenamate derivatives as autophagy inducer” (Bioorg Med Chem Lett, 2012).
